# Paper PMC10023787, “Trio-pharmacophore DNA-encoded chemical library for simultaneous selection of fragments and linkers” (Nature Communications, 2023)
# Columns and labels:
# MMP-9 = molecular target: T1, MMP-9 (Homo sapiens, UniProt P14780); test: MMP-9 inhibition assay (fluorogenic peptide substrate); type: biochemical; set-up: remaining enzyme activity (% of control): scale not given here; conditions: for IC50: mean ± SE, n.d: not detected, Fig. 5e prints no unit, µM, read-out: IC50
# T1 construct: purchased Sino Biological 10327-HNAH
# Description: (§1) The inhibition by the small molecule compounds against MMP-2/MMP-9 was measured using an assay probing the enzyme proteolytic activity on the substrate DNP-Pro-Leu-Gly-Met-Trp-Ser-Arg (Enzo Life Sciences, USA). All assays were performed in the assay buffer containing 50 mM Tris, 100 mM NaCl. 5 mM CaCl2, and 0.1% Brij 35, pH 7.5. Human proMMP-2 and proMMP-9 were purchased from Sino biological (Germany). The proMMPs were activated by 1 mM APMA in the assay buffer at 37 °C for 2 h. After activation, MMP-2 was diluted to 6.5 nM of final assay concentration, and MMP-9 was diluted by the buffer to reach 10 nM of final assay concentration. In each well, 49 μl of enzyme solution was incubated with 1 μl of compounds of series of concentration (nM-mM in DMSO) at RT for 30 min. 2 μl of the FRET substrate was added right before the measurement at a final concentration of 25 μM. The rate of hydrolysis was monitored by quantifying the emission at 360 nm (ex: 280 nm). The emission was measured with intervals of the 30 s for 30 min with Synergy H1 Plate Reader (Agilent, USA). The measurements were done in triplicate. […] Then, curves were plotted as a function of the concentration of the inhibitor against the relative enzyme activity. Vmax was derived from the detected […] signal for each concentration and logistic fitting was performed to obtain IC50 values using Origin 2019b (OriginLab).
# MMP-2 = molecular target: T2, MMP-2 (Homo sapiens, UniProt P08253); test: MMP-2 inhibition assay (fluorogenic peptide substrate); type: biochemical; conditions: for IC50: mean ± SE, n.d: not detected, Fig. 5d unit inferred, µM, read-out: IC50
# T2 construct: purchased Sino Biological 10082-HNAH
# T2 sequence (P08253 110-660): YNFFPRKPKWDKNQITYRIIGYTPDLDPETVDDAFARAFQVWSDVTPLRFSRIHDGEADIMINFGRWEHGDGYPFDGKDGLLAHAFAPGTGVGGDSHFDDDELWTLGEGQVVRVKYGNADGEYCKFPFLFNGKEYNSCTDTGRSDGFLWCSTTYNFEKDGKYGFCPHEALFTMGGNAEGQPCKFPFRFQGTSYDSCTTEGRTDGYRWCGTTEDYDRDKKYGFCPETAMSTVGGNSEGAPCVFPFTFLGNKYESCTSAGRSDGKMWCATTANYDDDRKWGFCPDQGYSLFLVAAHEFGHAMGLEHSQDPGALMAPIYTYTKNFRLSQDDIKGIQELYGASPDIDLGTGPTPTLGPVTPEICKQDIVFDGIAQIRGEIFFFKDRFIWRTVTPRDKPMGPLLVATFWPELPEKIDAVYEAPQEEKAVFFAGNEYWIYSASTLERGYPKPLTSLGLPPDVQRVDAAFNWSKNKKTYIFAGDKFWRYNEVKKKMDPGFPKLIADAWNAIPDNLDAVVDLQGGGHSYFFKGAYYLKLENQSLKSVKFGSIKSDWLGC
# Description: as §1
# T1 sequence (P14780 107-707 limits assumed): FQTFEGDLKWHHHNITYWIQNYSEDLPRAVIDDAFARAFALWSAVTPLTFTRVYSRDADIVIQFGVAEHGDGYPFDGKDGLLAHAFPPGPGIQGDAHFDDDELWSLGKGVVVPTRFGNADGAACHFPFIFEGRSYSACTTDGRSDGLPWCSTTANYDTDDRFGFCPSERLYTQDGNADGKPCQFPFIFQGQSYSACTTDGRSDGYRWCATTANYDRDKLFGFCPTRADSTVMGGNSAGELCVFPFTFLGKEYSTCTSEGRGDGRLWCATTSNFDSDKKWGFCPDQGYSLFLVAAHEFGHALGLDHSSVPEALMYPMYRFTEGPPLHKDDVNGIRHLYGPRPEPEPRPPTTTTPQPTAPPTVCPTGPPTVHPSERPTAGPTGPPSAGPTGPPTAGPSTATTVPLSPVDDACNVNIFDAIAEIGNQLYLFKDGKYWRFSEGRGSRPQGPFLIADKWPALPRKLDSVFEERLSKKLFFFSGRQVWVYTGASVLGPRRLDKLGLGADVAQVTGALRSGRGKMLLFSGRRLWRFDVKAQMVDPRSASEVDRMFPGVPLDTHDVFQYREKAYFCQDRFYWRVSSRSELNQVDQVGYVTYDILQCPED
"remaining activity (%) (MMP-2; MMP-2, concentration 0.12 µM)","remaining activity (%) (MMP-2; MMP-2, concentration 0.49 µM)","remaining activity (%) (MMP-2; MMP-2, concentration 1.95 µM)","remaining activity (%) (MMP-2; MMP-2, concentration 7.81 µM)","remaining activity (%) (MMP-2; MMP-2, concentration 31.25 µM)","remaining activity (%) (MMP-2; MMP-2, concentration 125.00 µM)","remaining activity (%) (MMP-2; MMP-2, concentration 500.00 µM)",IC50 (MMP-2) [µM],"remaining enzyme activity (% of control) (MMP-9; MMP-9, concentration 0.12 µM)","remaining enzyme activity (% of control) (MMP-9; MMP-9, concentration 0.49 µM)","remaining enzyme activity (% of control) (MMP-9; MMP-9, concentration 1.95 µM)","remaining enzyme activity (% of control) (MMP-9; MMP-9, concentration 7.81 µM)","remaining enzyme activity (% of control) (MMP-9; MMP-9, concentration 31.25 µM)","remaining enzyme activity (% of control) (MMP-9; MMP-9, concentration 125.00 µM)","remaining enzyme activity (% of control) (MMP-9; MMP-9, concentration 500.00 µM)",IC50 (MMP-9) [µM],Compound,further results
92.61,95.31,84.32,92.35,84.58,82.25,42.45,439 ± 56.5,–,–,–,–,–,–,–,–,Cn1c(O)nc2cc(C(=O)NCCCCCCCCNC(=O)Cn3cnc4c(oc5ccccc54)c3=O)cnc21 [182+826 Linker 4],"remaining enzyme activity (% of control) (MMP-9; MMP-9, concentration 0.13 µM): 96.35; remaining enzyme activity (% of control) (MMP-9; MMP-9, concentration 0.50 µM): 93.10; remaining enzyme activity (% of control) (MMP-9; MMP-9, concentration 2.01 µM): 95.02; remaining enzyme activity (% of control) (MMP-9; MMP-9, concentration 8.03 µM): 95.39; remaining enzyme activity (% of control) (MMP-9; MMP-9, concentration 128.50 µM): 75.89; remaining enzyme activity (% of control) (MMP-9; MMP-9, concentration 514.00 µM): 61.85"
104.96,102.80,96.45,96.46,89.20,71.67,58.28,–,94.26,94.53,79.71,87.21,75.62,66.17,43.49,283 ± 84.3,Cn1c(O)nc2cc(C(=O)NCCOCCOCCNC(=O)Cn3cnc4c(oc5ccccc54)c3=O)cnc21 [182+826 Linker 10],–
–,–,–,–,–,–,–,62.3 ± 14,93.35,105.08,88.98,94.00,85.67,51.95,12.28,131 ± 24.2,Cn1c(O)nc2cc(C(=O)NCCCCC=CC(=O)CC(=O)NCCNC(=O)Cn3cnc4c(oc5ccccc54)c3=O)cnc21 [182+826 Linker 12],"remaining activity (%) (MMP-2; MMP-2, concentration 0.13 µM): 97.62; remaining activity (%) (MMP-2; MMP-2, concentration 0.50 µM): 96.92; remaining activity (%) (MMP-2; MMP-2, concentration 2.01 µM): 91.66; remaining activity (%) (MMP-2; MMP-2, concentration 8.03 µM): 85.01; remaining activity (%) (MMP-2; MMP-2, concentration 128.50 µM): 28.27; remaining activity (%) (MMP-2; MMP-2, concentration 514.00 µM): 12.65"
–,–,–,–,–,–,–,–,–,–,–,–,–,–,–,281 ± 97.2,Cn1c(O)nc2cc(C(=O)NCCNC(=O)CSCCNC(=O)Cn3cnc4c(oc5ccccc54)c3=O)cnc21 [182+826 Linker 24],"remaining enzyme activity (% of control) (MMP-9; MMP-9, concentration 0.09 µM): 91.31; remaining enzyme activity (% of control) (MMP-9; MMP-9, concentration 0.36 µM): 105.17; remaining enzyme activity (% of control) (MMP-9; MMP-9, concentration 1.46 µM): 94.51; remaining enzyme activity (% of control) (MMP-9; MMP-9, concentration 5.83 µM): 85.81; remaining enzyme activity (% of control) (MMP-9; MMP-9, concentration 23.31 µM): 80.00; remaining enzyme activity (% of control) (MMP-9; MMP-9, concentration 93.25 µM): 70.35; remaining enzyme activity (% of control) (MMP-9; MMP-9, concentration 373.00 µM): 44.33; remaining activity (%) (MMP-2; MMP-2, concentration 0.09 µM): 97.26; remaining activity (%) (MMP-2; MMP-2, concentration 0.36 µM): 110.41; remaining activity (%) (MMP-2; MMP-2, concentration 1.46 µM): 108.70; remaining activity (%) (MMP-2; MMP-2, concentration 5.83 µM): 101.42; remaining activity (%) (MMP-2; MMP-2, concentration 23.31 µM): 109.20; remaining activity (%) (MMP-2; MMP-2, concentration 93.25 µM): 102.62; remaining activity (%) (MMP-2; MMP-2, concentration 373.00 µM): 72.08"
